Source: ChEMBL document CHEMBL5370646, “Synthesis and Conformational Analysis of FR901464-Based RNA Splicing Modulators and Their Synergism in Drug-Resistant Cancers” (J Med Chem, 2023)
Activity calls are given as the source filed them. The calls are words filed in the database; no cut-off is given here.

Tests used:
DMS-114 [1] = test: Synergistic antiproliferative activity against human DMS-114 cells assessed as combination index at 3 nM incubated for 72 hrs in presence of 4.8 uM venetoclax by WST-1 assay; format: functional
DMS-53 [2] = test: Growth inhibition of human DMS-53 cells assessed as reduction in cell viability incubated for 72 hrs; format: functional
DMS-114 [3] = test: Synergistic antiproliferative activity against human DMS-114 cells assessed as combination index at 2 nM incubated for 72 hrs in presence of 3.6 uM venetoclax by WST-1 assay; format: functional
DMS-114 [4] = test: Synergistic antiproliferative activity against human DMS-114 cells assessed as combination index at 1 nM incubated for 72 hrs in presence of 4.8 uM venetoclax by WST-1 assay; format: functional
DMS-114 [5] = test: Synergistic antiproliferative activity against human DMS-114 cells assessed as combination index at 3 nM incubated for 72 hrs in presence of 3.6 uM venetoclax by WST-1 assay; format: functional
HCT-116 [6] = test: Growth inhibition of human HCT-116 cells assessed as reduction in cell viability incubated for 72 hrs; format: functional
[7] = Synergistic antiproliferative activity against human Osimertinib-resistant HCC827AR cell assessed as combination index at 1 nM incubated for 72 hrs in presence of 0.50 uM osimertinib by WST-1 assay; format: functional
[8] = Growth inhibition of human CCD-841CoN cells assessed as reduction in cell viability incubated for 72 hrs; format: toxicity, cell-based
DMS-53 [9] = test: Synergistic antiproliferative activity against human DMS-53 cells assessed as combination index at 2 nM incubated for 72 hrs in presence of 200 […] by WST-1 assay; format: functional
DMS-114 [10] = test: Synergistic antiproliferative activity against human DMS-114 cells assessed as combination index at 1 nM incubated for 72 hrs in presence of 12 uM venetoclax by WST-1 assay; format: functional
HCT-116 [11] = test: Modulation of RNA splicing in human HCT-116 cells assessed as decrease in MCL-1L expression by Western blot analysis; format: functional, cell-based; settings: dose 3-100 nM
DMS-53 [12] = test: Synergistic antiproliferative activity against human DMS-53 cells assessed as combination index at 1 nM incubated for 72 hrs in presence of […] venetoclax by WST-1 assay; format: functional
DMS-53 [13] = test: Synergistic antiproliferative activity against human DMS-53 cells assessed as combination index at 1 nM incubated for 72 hrs in presence of […] venetoclax by WST-1 assay; format: functional
DMS-114 [14] = test: Synergistic antiproliferative activity against human DMS-114 cells assessed as combination index at 3 nM incubated for 72 hrs in presence of 2.4 uM venetoclax by WST-1 assay; format: functional
SW48 = test: Growth inhibition of human SW48 cells assessed as reduction in cell viability incubated for 72 hrs; format: functional
DMS-53 [15] = test: Synergistic antiproliferative activity against human DMS-53 cells assessed as combination index at 2 nM incubated for 72 hrs in presence of 400 […] by WST-1 assay; format: functional
DMS-114 [16] = test: Synergistic antiproliferative activity against human DMS-114 cells assessed as combination index at 2 nM incubated for 72 hrs in presence of 4.8 uM venetoclax by WST-1 assay; format: functional
DMS-114 [17] = test: Modulation of RNA splicing in human DMS-114 cells at 3 to 30 nM by Western blot analysis; format: functional, cell-based; settings: dose 3-30 nM
DMS-114 [18] = test: Synergistic antiproliferative activity against human DMS-114 cells assessed as combination index at 1 nM incubated for 72 hrs in presence of 3.6 uM venetoclax by WST-1 assay; format: functional
HCT-116 [19] = test: Modulation of RNA splicing in human HCT-116 cells assessed as decrease in MCL-1S expression by Western blot analysis; format: functional, cell-based; settings: dose 3-100 nM
[20] = Synergistic antiproliferative activity against human Osimertinib-resistant HCC827AR cell assessed as combination index at 1.5 nM incubated for 72 hrs in presence of 0.50 uM osimertinib by WST-1 assay; format: functional
[21] = Synergistic antiproliferative activity against human Osimertinib-resistant HCC827AR cell assessed as combination index at 2 nM incubated for 72 hrs in presence of 1 uM osimertinib by WST-1 assay; format: functional
DMS-114 [22] = test: Synergistic antiproliferative activity against human DMS-114 cells assessed as combination index at 1 nM incubated for 72 hrs in presence of 2.4 uM venetoclax by WST-1 assay; format: functional
DMS-53 [23] = test: Synergistic antiproliferative activity against human DMS-53 cells assessed as combination index at 1.5 nM incubated for 72 hrs in presence of […] venetoclax by WST-1 assay; format: functional
DMS-114 [24] = test: Synergistic antiproliferative activity against human DMS-114 cells assessed as combination index at 3 nM incubated for 72 hrs in presence of 12 uM venetoclax by WST-1 assay; format: functional
HCT-116 [25] = test: Modulation of RNA splicing in human HCT-116 cells assessed as decrease in SF3B1 phosphorylation at thr313 residue by Western blot analysis; format: functional, cell-based; settings: dose 3-100 nM
DMS-114 [26] = test: Synergistic antiproliferative activity against human DMS-114 cells assessed as combination index at 3 nM incubated for 72 hrs in presence of 6 uM venetoclax by WST-1 assay; format: functional
DMS-53 [27] = test: Synergistic antiproliferative activity against human DMS-53 cells assessed as combination index at 2 nM incubated for 72 hrs in presence of 25 […] by WST-1 assay; format: functional
[28] = Metabolic stability in CD1 mouse plasma assessed as half life measured after 48 hrs by LC-MS analysis; format: ADME, cell-free
[29] = Synergistic antiproliferative activity against human Osimertinib-resistant HCC827AR cell assessed as combination index at 1 nM incubated for 72 hrs in presence of 1 uM osimertinib by WST-1 assay; format: functional
DMS-53 [30] = test: Synergistic antiproliferative activity against human DMS-53 cells assessed as combination index at 2 nM incubated for 72 hrs in presence of 50 […] by WST-1 assay; format: functional
[31] = Synergistic antiproliferative activity against human Osimertinib-resistant HCC827AR cell assessed as combination index at 1.5 nM incubated for 72 hrs in presence of 4 uM osimertinib by WST-1 assay; format: functional
DMS-53 [32] = test: Synergistic antiproliferative activity against human DMS-53 cells assessed as combination index at 1.5 nM incubated for 72 hrs in presence of […] venetoclax by WST-1 assay; format: functional
DMS-114 [33] = test: Synergistic antiproliferative activity against human DMS-114 cells assessed as combination index at 2 nM incubated for 72 hrs in presence of 12 uM venetoclax by WST-1 assay; format: functional
[34] = Synergistic antiproliferative activity against human Osimertinib-resistant HCC827AR cell assessed as combination index at 2.5 nM incubated for 72 hrs in presence of 4 uM osimertinib by WST-1 assay; format: functional
[35] = Growth inhibition of mouse FL83B cells assessed as reduction in cell viability incubated for 72 hrs; format: toxicity, cell-based
[36] = Synergistic antiproliferative activity against human Osimertinib-resistant HCC827AR cell assessed as combination index at 2 nM incubated for 72 hrs in presence of 0.25 uM osimertinib by WST-1 assay; format: functional
DMS-53 [37] = test: Synergistic antiproliferative activity against human DMS-53 cells assessed as combination index at 1 nM incubated for 72 hrs in presence of […] venetoclax by WST-1 assay; format: functional

SMILES: COCO[C@@H](C)/C=C\C(=O)N[C@@H]1C[C@H](C)[C@H](C/C=C(C)/C=C/[C@H]2OC(C)(C)C[C@@]3(CO3)[C@@H]2O)O[C@@H]1C
- CI (DMS-114 [1]): 0.21
- GI50 (DMS-53 [2]): 2.7 nM
- CI (DMS-114 [3]): 0.63
- CI (DMS-114 [4]): 1.3
- CI (DMS-114 [5]): 0.23
- GI50 (HCT-116 [6]): 2 nM
- CI [7]: 1.42
- GI50 at 72 h [8]: 9.6 nM
- CI (DMS-53 [9]): 0.4
- CI (DMS-114 [10]): 0.88
- Activity (HCT-116 [11]): Dose-Dependent Effect
- CI (DMS-53 [12]): 0.91
- CI (DMS-53 [13]): 1.26
- CI (DMS-114 [14]): 0.21
- GI50 (SW48): 2.5 nM
- CI (DMS-53 [15]): 0.33
- CI (DMS-114 [16]): 0.66
- Activity (DMS-114 [17]): Active
- CI (DMS-114 [18]): 1.34
- Activity (HCT-116 [19]): Dose-Dependent Effect
- CI [20]: 1.28
- CI [21]: 1.2
- CI (DMS-114 [22]): 1.11
- CI (DMS-53 [23]): 0.72
- CI (DMS-114 [24]): 0.14
- Activity (HCT-116 [25]): Dose-Dependent Effect
- CI (DMS-114 [26]): 0.2
- CI (DMS-53 [27]): 0.58
- half-life [28]: 13 h
- CI [29]: 1.48
- CI (DMS-53 [30]): 0.47
- CI [31]: 0.92
- CI (DMS-53 [32]): 0.51
- CI (DMS-114 [33]): 0.44
- CI [34]: 0.83
- GI50 at 72 h [35]: 5.7 nM
- CI [36]: 0.97
- CI (DMS-53 [37]): 1.08
